Measured values: patent EP4810052A2, “HCRHR2 SELECTIVE POLYPEPTIDES” (Gubra A/S, priority 2023, dated 2026)
Read-outs that look alike come from different tables or passages of the source. Starred links: 1 amine or outer side, 2 acyl side, 3 side chain; linkers in the order of their positions; H or OH if unused. Non-standard residues stand in square brackets, D forms with d. Residues, ends and D or L forms follow the SMILES beside them. Groups on a side chain read outwards from the residue. *: point of attachment. C20 diacid = O=C(O)CCCCCCCCCCCCCCCCCCC(=O)*; γGlu = O=C(O)[C@H](CCC(=O)[*:2])N[*:1]; NMeI = CC[C@H](C)[C@H](NC)C(=O)O; Nle = CCCC[C@H](N)C(=O)O; AEEA = NCCOCCOCC(=O)O; Aib = CC(C)(N)C(=O)O

Assays:
hCRHR2 = molecular target: T1, hCRHR2 (Homo sapiens, UniProt Q13324); experiment: HTRF cAMP assay, determination of hCRHR2 potency (peptide libraries 5 conc., purified peptides 11 conc.); assay type: cell-based; conditions: for EC50: read-out: hCRHR2 pEC50 (converted)
T1 sequence (Q13324 1-411): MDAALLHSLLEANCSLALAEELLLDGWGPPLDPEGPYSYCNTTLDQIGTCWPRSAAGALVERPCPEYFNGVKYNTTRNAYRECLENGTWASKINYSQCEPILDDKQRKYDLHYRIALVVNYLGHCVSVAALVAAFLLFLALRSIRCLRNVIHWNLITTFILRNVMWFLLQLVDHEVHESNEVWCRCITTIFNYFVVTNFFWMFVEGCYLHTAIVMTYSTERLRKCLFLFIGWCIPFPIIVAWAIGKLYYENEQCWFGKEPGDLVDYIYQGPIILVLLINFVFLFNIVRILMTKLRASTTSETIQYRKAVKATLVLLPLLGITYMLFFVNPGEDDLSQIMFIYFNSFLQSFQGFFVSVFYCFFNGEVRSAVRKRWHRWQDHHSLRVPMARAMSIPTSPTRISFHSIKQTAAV
Text: HTRF (CisBio) cAMP assay: The assay technology has thoroughly been described in the CisBio HTRF cAMP assay Kit manual (# 62AM4PEC). Briefly, time resolved fluorescence technic was applied to measure cAMP. This technic is based on a competitive immunoassay using cryptate-labelled anti-cAMP antibody and d2-labeled cAMP. In the absence of cellular cAMP, the anti-cAMP cryptate conjugate may get into proximity to cAMP-d2 conjugate and energy (FRET) can be transferred from cryptate to d2.
CHO-K1 cells stably expressing the human corticotropin-releasing hormone receptor 2 (Eurofins/DiscoverX, Cat #95-0048C2 hCRHR2 stable monoclonal cell lines) were used as cells in suspension, brought to life from frozen cell stocks immediately before assay performance.
Concentration-response evaluation of compounds was performed with 5 concentrations of agonist peptides and EC50 values were calculated by nonlinear regression using sigmoid concentration-response with variable slope.
Concentration-response evaluation of compounds was performed with 11 concentrations of agonist peptides and EC50 values were calculated by nonlinear regression using sigmoid concentration-response with variable slope.

hCRHR1 = molecular target: T2, hCRHR1 (Homo sapiens, UniProt P34998); experiment: HTRF cAMP assay, determination of hCRHR1 potency (peptide libraries 5 conc., purified peptides 11 conc.); assay type: cell-based; conditions: read-out: hCRHR1 pEC50 (converted)
T2 sequence (P34998 24-415): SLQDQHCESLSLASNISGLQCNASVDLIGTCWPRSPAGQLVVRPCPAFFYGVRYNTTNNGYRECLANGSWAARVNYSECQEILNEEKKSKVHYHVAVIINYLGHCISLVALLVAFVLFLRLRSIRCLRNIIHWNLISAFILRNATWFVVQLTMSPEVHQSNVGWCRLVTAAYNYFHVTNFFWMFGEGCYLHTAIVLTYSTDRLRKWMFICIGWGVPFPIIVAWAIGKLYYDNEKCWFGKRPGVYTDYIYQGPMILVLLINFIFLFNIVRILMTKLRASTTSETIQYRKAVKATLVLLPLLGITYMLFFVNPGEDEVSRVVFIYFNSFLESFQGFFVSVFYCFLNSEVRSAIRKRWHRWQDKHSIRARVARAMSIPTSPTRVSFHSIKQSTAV
Text: HTRF (CisBio) cAMP assay: The assay technology has thoroughly been described in the CisBio HTRF cAMP assay Kit manual (# 62AM4PEC). Briefly, time resolved fluorescence technic was applied to measure cAMP. This technic is based on a competitive immunoassay using cryptate-labelled anti-cAMP antibody and d2-labeled cAMP. In the absence of cellular cAMP, the anti-cAMP cryptate conjugate may get into proximity to cAMP-d2 conjugate and energy (FRET) can be transferred from cryptate to d2. CHO-K1 cells stably expressing the human corticotropin-releasing hormone receptor 1 (Eurofins/DiscoverX Cat #95-0047C2 hCRHR1 stable monoclonal cell lines) were used as cells in suspension, brought to life from frozen cell stocks immediately before assay performance. […] Concentration-response evaluation of compounds was performed with 5 concentrations of agonist peptides and EC50 values were calculated by nonlinear regression using sigmoid concentration-response with variable slope. Concentration-response evaluation of compounds was performed with 11 concentrations of agonist peptides and EC50 values were calculated by nonlinear regression using sigmoid concentration-response with variable slope.

[1] = Table 3, matched molecular pairs X^38 L vs Nle, peptide library of Example 4
[2] = Table 4, library peptides having X^38 = Nle

SMILES: CC[C@H](C)[C@H](N)C(=O)N[C@H](C(=O)N[C@@H](CC(C)C)C(=O)N[C@@H](CO)C(=O)N[C@@H](CC(C)C)C(=O)N[C@@H](CC(=O)O)C(=O)N[C@H](C(=O)N1CCC[C@H]1C(=O)N[C@H](C(=O)NCC(=O)N[C@@H](CC(C)C)C(=O)N[C@@H](CC(C)C)C(=O)N[C@@H](CCC(N)=O)C(=O)N[C@H](C(=O)N[C@@H](CC(C)C)C(=O)N[C@@H](CC(C)C)C(=O)N[C@@H](CCC(=O)O)C(=O)N[C@@H](CCC(N)=O)C(=O)N[C@@H](C)C(=O)N[C@@H](CCCNC(=N)N)C(=O)N[C@@H](C)C(=O)N[C@@H](CCC(N)=O)C(=O)N[C@@H](C)C(=O)N[C@@H](C)C(=O)N[C@@H](CCCNC(=N)N)C(=O)N[C@@H](CCC(=O)O)C(=O)N[C@@H](CCC(N)=O)C(=O)N[C@@H](C)C(=O)N[C@@H](CCCCNC(=O)COCCOCCNC(=O)COCCOCCNC(=O)CC[C@H](NC(=O)CC[C@H](NC(=O)CCCCCCCCCCCCCCCCCCC(=O)O)C(=O)O)C(=O)O)C(=O)N[C@H](C(=O)N[C@@H](CC(N)=O)C(=O)N[C@@H](C)C(=O)N[C@@H](CCC(=O)O)C(=O)N[C@H](C(=O)N[C@@H](CC(C)C)C(=O)N[C@@H](C)C(=O)N[C@@H](CCC(=O)O)C(=O)N[C@H](C(N)=O)[C@@H](C)CC)[C@@H](C)CC)[C@@H](C)O)[C@@H](C)CC)[C@@H](C)CC)C(C)C)C(C)C [SEQ ID NO: 43] (H-IVLSLDVPIGLLQILLEQARAQAAREQAK([AEEA-AEEA-γGlu-γGlu-C20 diacid])TNAEILAEI-NH2)
- EC50 (hCRHR2; [1]): 0.501 nM
- EC50 (hCRHR1; [1]): 63100 nM

SMILES: CCCC[C@H](NC(=O)[C@@H](NC(=O)[C@H](CCC(=O)O)NC(=O)[C@H](C)NC(=O)[C@H](CC(N)=O)NC(=O)C(C)(C)NC(=O)[C@H](CCCCNC(=O)COCCOCCNC(=O)COCCOCCNC(=O)CC[C@H](NC(=O)CC[C@H](NC(=O)CCCCCCCCCCCCCCCCCCC(=O)O)C(=O)O)C(=O)O)NC(=O)[C@H](C)NC(=O)[C@H](CCC(N)=O)NC(=O)[C@H](CCC(=O)O)NC(=O)[C@H](CCCNC(=N)N)NC(=O)[C@H](C)NC(=O)[C@H](C)NC(=O)[C@H](CCCNC(=N)N)NC(=O)[C@H](C)NC(=O)[C@H](CCCNC(=N)N)NC(=O)[C@H](C)NC(=O)[C@H](CCC(N)=O)NC(=O)[C@H](CCC(=O)O)NC(=O)[C@H](CC(C)C)NC(=O)[C@H](CC(C)C)NC(=O)[C@@H](NC(=O)[C@H](CCC(N)=O)NC(=O)[C@H](CC(C)C)NC(=O)[C@H](CC(C)C)NC(=O)CNC(=O)[C@@H](NC(=O)[C@@H]1CCCN1C(=O)[C@@H](NC(=O)[C@H](CC(=O)O)NC(=O)[C@H](CC(C)C)NC(=O)[C@H](CO)NC(=O)[C@H](CC(C)C)NC(=O)[C@@H](NC(=O)[C@@H](NC)[C@@H](C)CC)C(C)C)C(C)C)[C@@H](C)CC)[C@@H](C)CC)[C@@H](C)CC)C(=O)N[C@@H](C)C(=O)N[C@@H](CCC(=O)O)C(=O)N[C@H](C(N)=O)C(C)C [compound 124] (H-[NMeI]VLSLDVPIGLLQILLEQARARAAREQAK([AEEA-AEEA-γGlu-γGlu-C20 diacid])[Aib]NAEI[Nle]AEV-NH2)
- EC50 (hCRHR2; [2]): 0.00631 nM
- Selectivity hCRHR1 EC50/hCRHR2 EC50 (hCRHR2; Table 4, ratio, or comparison with Ref. 1 (SEQ ID NO: 205) / Ref. 2 (SEQ ID NO: 124)): 40378
- EC50 (hCRHR1; [2]): 251 nM

SMILES: CCCC[C@H](NC(=O)[C@@H](NC(=O)[C@H](CCC(=O)O)NC(=O)C(C)(C)NC(=O)[C@H](CC(N)=O)NC(=O)[C@@H](NC(=O)[C@H](CCCCNC(=O)COCCOCCNC(=O)COCCOCCNC(=O)CC[C@H](NC(=O)CC[C@H](NC(=O)CCCCCCCCCCCCCCCCCCC(=O)O)C(=O)O)C(=O)O)NC(=O)[C@H](C)NC(=O)[C@H](CCC(N)=O)NC(=O)[C@H](CCC(=O)O)NC(=O)[C@H](CCCNC(=N)N)NC(=O)[C@H](C)NC(=O)[C@H](C)NC(=O)[C@H](CCCNC(=N)N)NC(=O)[C@H](C)NC(=O)[C@H](CCCNC(=N)N)NC(=O)[C@H](C)NC(=O)[C@H](CCC(N)=O)NC(=O)[C@H](Cc1ccccc1)NC(=O)[C@H](CC(C)C)NC(=O)[C@H](CC(C)C)NC(=O)[C@@H](NC(=O)[C@H](CCC(N)=O)NC(=O)[C@H](CC(C)C)NC(=O)[C@H](CC(C)C)NC(=O)CNC(=O)[C@@H](NC(=O)[C@@H]1CCCN1C(=O)[C@@H](NC(=O)[C@H](CC(=O)O)NC(=O)[C@H](CC(C)C)NC(=O)[C@H](CO)NC(=O)[C@H](CC(C)C)NC(=O)[C@@H](NC(=O)[C@@H](NC)[C@@H](C)CC)C(C)C)C(C)C)[C@@H](C)CC)[C@@H](C)CC)[C@@H](C)O)[C@@H](C)CC)C(=O)N[C@@H](C)C(=O)N[C@@H](CCC(=O)O)C(=O)N[C@H](C(N)=O)C(C)C [compound 211] (H-[NMeI]VLSLDVPIGLLQILLFQARARAAREQAK([AEEA-AEEA-γGlu-γGlu-C20 diacid])TN[Aib]EI[Nle]AEV-NH2)
- EC50 (hCRHR2; [2]): 0.0251 nM
- EC50 (hCRHR1; [2]): 79400 nM

SMILES: CCCC[C@H](NC(=O)[C@@H](NC(=O)[C@H](CCC(=O)O)NC(=O)[C@H](C)NC(=O)[C@H](CC(N)=O)NC(=O)C(C)(C)NC(=O)[C@H](CCCCNC(=O)COCCOCCNC(=O)COCCOCCNC(=O)CC[C@H](NC(=O)CC[C@H](NC(=O)CCCCCCCCCCCCCCCCCCC(=O)O)C(=O)O)C(=O)O)NC(=O)[C@H](C)NC(=O)[C@H](CCC(N)=O)NC(=O)[C@H](CCC(=O)O)NC(=O)[C@H](CCCNC(=N)N)NC(=O)[C@H](C)NC(=O)[C@H](C)NC(=O)[C@H](CCCNC(=N)N)NC(=O)[C@H](C)NC(=O)[C@H](CCCNC(=N)N)NC(=O)[C@H](C)NC(=O)[C@H](CCC(N)=O)NC(=O)[C@H](CCCNC(=N)N)NC(=O)[C@H](CC(C)C)NC(=O)[C@H](CC(C)C)NC(=O)[C@@H](NC(=O)[C@H](CCC(N)=O)NC(=O)[C@H](CC(C)C)NC(=O)[C@H](CC(C)C)NC(=O)CNC(=O)[C@@H](NC(=O)[C@@H]1CCCN1C(=O)[C@@H](NC(=O)[C@H](CC(=O)O)NC(=O)[C@H](CC(C)C)NC(=O)[C@H](CO)NC(=O)[C@H](CC(C)C)NC(=O)[C@@H](NC(=O)[C@@H](NC)[C@@H](C)CC)C(C)C)C(C)C)[C@@H](C)CC)[C@@H](C)CC)[C@@H](C)CC)C(=O)N[C@@H](C)C(=O)N[C@@H](CCC(=O)O)C(=O)N[C@H](C(N)=O)C(C)C [compound 232] (H-[NMeI]VLSLDVPIGLLQILLRQARARAAREQAK([AEEA-AEEA-γGlu-γGlu-C20 diacid])[Aib]NAEI[Nle]AEV-NH2)
- EC50 (hCRHR2; [2]): 0.158 nM
- EC50 (hCRHR1; [2]): 50100 nM
